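Here, GI50 denotes the concentration required for 50% inhibition of growth. TGI: total growth inhibition.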
Legend:
Assay in all cases: inhibition of tumour cell growth, NCI panel, 384-well format; in the data active means GI50 below about 0.43 µM; inactive means the rest
BT-549 breast = tested on: BT-549 breast
UACC-257 melanoma = tested on: UACC-257 melanoma
PC-3 prostate = tested on: PC-3 prostate
OVCAR-8 ovarian = tested on: OVCAR-8 ovarian
OVCAR-5 ovarian = tested on: OVCAR-5 ovarian
NCI-H23 lung = tested on: NCI-H23 lung
SK-OV-3 ovarian = tested on: SK-OV-3 ovarian
HL-60(TB) leukemia = tested on: HL-60(TB) leukemia
HCT-15 colon = tested on: HCT-15 colon
DU-145 prostate = tested on: DU-145 prostate
NCI-H322M lung = tested on: NCI-H322M lung
LOX IMVI melanoma = tested on: LOX IMVI melanoma
ACHN renal = tested on: ACHN renal
COLO 205 colon = tested on: COLO 205 colon
SK-MEL-28 melanoma = tested on: SK-MEL-28 melanoma
HS 578T breast = tested on: HS 578T breast
SNB-19 CNS = tested on: SNB-19 CNS
U251 glioblastoma = tested on: U251 glioblastoma
HCC-2998 colon = tested on: HCC-2998 colon
CAKI-1 renal = tested on: CAKI-1 renal
OVCAR-3 ovarian = tested on: OVCAR-3 ovarian
A498 renal = tested on: A498 renal
KM12 colon = tested on: KM12 colon
HOP-92 NSCLC = tested on: HOP-92 NSCLC
MDA-MB-231 breast = tested on: MDA-MB-231 breast
MALME-3M melanoma = tested on: MALME-3M melanoma
SW-620 colon = tested on: SW-620 colon
SF-295 CNS = tested on: SF-295 CNS
SF-539 CNS = tested on: SF-539 CNS
SF-268 CNS = tested on: SF-268 CNS
SN12C renal = tested on: SN12C renal
MDA-MB-435 melanoma = tested on: MDA-MB-435 melanoma
HT29 colon = tested on: HT29 colon
HCT-116 colon = tested on: HCT-116 colon
NCI-H226 lung = tested on: NCI-H226 lung
IGROV1 ovarian = tested on: IGROV1 ovarian
HOP-62 NSCLC = tested on: HOP-62 NSCLC
MDA-MB-468 breast = tested on: MDA-MB-468 breast
UACC-62 melanoma = tested on: UACC-62 melanoma
NCI/ADR-RES ovarian = tested on: NCI/ADR-RES ovarian
RXF 393 renal = tested on: RXF 393 renal
UO-31 renal = tested on: UO-31 renal
SK-MEL-5 melanoma = tested on: SK-MEL-5 melanoma
A549 NSCLC = tested on: A549 NSCLC
TK-10 renal = tested on: TK-10 renal
M14 melanoma = tested on: M14 melanoma
EKVX NSCLC = tested on: EKVX NSCLC
RPMI-8226 leukemia = tested on: RPMI-8226 leukemia
SNB-75 CNS = tested on: SNB-75 CNS
SR leukemia = tested on: SR leukemia
T-47D breast = tested on: T-47D breast
786-0 renal = tested on: 786-0 renal
MOLT-4 leukemia = tested on: MOLT-4 leukemia
MCF7 breast = tested on: MCF7 breast
NCI-H460 NSCLC = tested on: NCI-H460 NSCLC
NCI-H522 lung = tested on: NCI-H522 lung
OVCAR-4 ovarian = tested on: OVCAR-4 ovarian

C[C@]12CC[C@@H]3c4ccc(OC(=O)N(CCCl)CCCl)cc4CC[C@H]3[C@@H]1CC[C@@H]2OP(=O)(O)O
> 100 µM: TGI (BT-549 breast) | TGI (UACC-257 melanoma) | TGI (PC-3 prostate) | TGI (OVCAR-8 ovarian) | TGI (OVCAR-5 ovarian) | TGI (NCI-H23 lung) | TGI (SK-OV-3 ovarian) | TGI (HL-60(TB) leukemia) | TGI (HCT-15 colon) | TGI (DU-145 prostate) | TGI (NCI-H322M lung) | TGI (LOX IMVI melanoma) | TGI (ACHN renal) | TGI (COLO 205 colon) | TGI (SK-MEL-28 melanoma) | TGI (HS 578T breast) | TGI (SNB-19 CNS) | TGI (U251 glioblastoma) | TGI (HCC-2998 colon) | TGI (CAKI-1 renal) | TGI (OVCAR-3 ovarian) | TGI (A498 renal) | TGI (KM12 colon) | TGI (HOP-92 NSCLC) | TGI (MDA-MB-231 breast) | TGI (MALME-3M melanoma) | TGI (SW-620 colon) | TGI (SF-295 CNS) | TGI (SF-539 CNS) | TGI (SF-268 CNS) | TGI (SN12C renal) | TGI (MDA-MB-435 melanoma) | TGI (HT29 colon) | TGI (HCT-116 colon) | TGI (NCI-H226 lung) | TGI (IGROV1 ovarian) | TGI (HOP-62 NSCLC) | TGI (MDA-MB-468 breast) | TGI (UACC-62 melanoma) | TGI (NCI/ADR-RES ovarian) | TGI (RXF 393 renal) | TGI (UO-31 renal) | TGI (SK-MEL-5 melanoma) | TGI (A549 NSCLC) | TGI (TK-10 renal) | TGI (M14 melanoma) | TGI (EKVX NSCLC) | TGI (RPMI-8226 leukemia) | TGI (SNB-75 CNS) | TGI (SR leukemia) | TGI (T-47D breast) | TGI (786-0 renal) | TGI (MOLT-4 leukemia) | TGI (MCF7 breast) | TGI (NCI-H460 NSCLC) | TGI (NCI-H522 lung) | TGI (OVCAR-4 ovarian)
inactive: GI50 (BT-549 breast) 25 µM | GI50 (UACC-257 melanoma) > 100 µM | GI50 (PC-3 prostate) > 100 µM | GI50 (OVCAR-8 ovarian) > 100 µM | GI50 (OVCAR-5 ovarian) > 100 µM | GI50 (NCI-H23 lung) > 100 µM | GI50 (SK-OV-3 ovarian) > 100 µM | GI50 (HL-60(TB) leukemia) > 100 µM | GI50 (HCT-15 colon) > 100 µM | GI50 (DU-145 prostate) > 100 µM | GI50 (NCI-H322M lung) > 100 µM | GI50 (LOX IMVI melanoma) > 100 µM | GI50 (ACHN renal) > 100 µM | GI50 (COLO 205 colon) > 100 µM | GI50 (SK-MEL-28 melanoma) > 100 µM | GI50 (HS 578T breast) > 100 µM | GI50 (SNB-19 CNS) > 100 µM | GI50 (U251 glioblastoma) > 100 µM | GI50 (HCC-2998 colon) > 100 µM | GI50 (CAKI-1 renal) > 100 µM | GI50 (OVCAR-3 ovarian) > 100 µM | GI50 (A498 renal) > 100 µM | GI50 (KM12 colon) > 100 µM | GI50 (HOP-92 NSCLC) > 100 µM | GI50 (MDA-MB-231 breast) > 100 µM | GI50 (MALME-3M melanoma) > 100 µM | GI50 (SW-620 colon) > 100 µM | GI50 (SF-295 CNS) > 100 µM | GI50 (SF-539 CNS) > 100 µM | GI50 (SF-268 CNS) > 100 µM | GI50 (SN12C renal) > 100 µM | GI50 (MDA-MB-435 melanoma) 41.2 µM | GI50 (HT29 colon) > 100 µM | GI50 (HCT-116 colon) > 100 µM | GI50 (NCI-H226 lung) > 100 µM | GI50 (IGROV1 ovarian) > 100 µM | GI50 (HOP-62 NSCLC) > 100 µM | GI50 (MDA-MB-468 breast) > 100 µM | GI50 (UACC-62 melanoma) > 100 µM | GI50 (NCI/ADR-RES ovarian) > 100 µM | GI50 (RXF 393 renal) 47.7 µM | GI50 (UO-31 renal) > 100 µM | GI50 (SK-MEL-5 melanoma) > 100 µM | GI50 (A549 NSCLC) > 100 µM | GI50 (TK-10 renal) > 100 µM | GI50 (M14 melanoma) > 100 µM | GI50 (EKVX NSCLC) > 100 µM | GI50 (RPMI-8226 leukemia) > 100 µM | GI50 (SNB-75 CNS) > 100 µM | GI50 (SR leukemia) > 100 µM | GI50 (T-47D breast) > 100 µM | GI50 (786-0 renal) > 100 µM | GI50 (MOLT-4 leukemia) > 100 µM | GI50 (MCF7 breast) > 100 µM | GI50 (NCI-H460 NSCLC) > 100 µM | GI50 (NCI-H522 lung) > 100 µM | GI50 (OVCAR-4 ovarian) > 100 µM

— PubChem BioAssay (NCI)
